Source: US11839689B2, “Formulations of enzalutamide” (Astellas Pharma Inc., priority 2012, dated 2023)

What was measured:
Format in all cases: physicochemical
[1] = Microcentrifuge dissolution test in Model Fasted Duodenal Solution; conditions: for Enzalutamide Concentration, 0 min / Enzalutamide Concentration, 4 min / Enzalutamide Concentration, 10 min / Enzalutamide Concentration, 20 min / Enzalutamide Concentration, 40 min / Enzalutamide Concentration, 90 min / Enzalutamide Concentration, 1200 min: MFDS pH 6.5; for Enzalutamide Concentration, 0 min / Enzalutamide Concentration, 4 min / Enzalutamide Concentration, 10 min / Enzalutamide Concentration, 20 min / Enzalutamide Concentration, 40 min / Enzalutamide Concentration, 90 min / Enzalutamide Concentration, 1200 min / AUC90 (area under the curve at 90 minutes) / Cmax, 90 (maximum drug concentration through 90 minutes): dose 200 μg/ml; for AUC90 (area under the curve at 90 minutes) / Cmax, 90 (maximum drug concentration through 90 minutes): Table 4.2, MFDS
Description: The in vitro dissolution test to evaluate enhanced drug concentration in aqueous solution can be conducted by (1) adding with agitation a sufficient quantity of control composition, that is, the crystalline enzalutamide alone, to the in vitro test medium, typically MFD or PBS solution, to determine the maximum concentration of the enzalutamide achieved under the conditions of the test; (2) adding with agitation a sufficient quantity of test composition (e.g., the enzalutamide and polymer) in an equivalent test medium, such that if all the enzalutamide dissolved, the theoretical concentration of enzalutamide would exceed the observed maximum concentration of enzalutamide by a factor of about 20; and (3) comparing the measured MDC and/or aqueous concentration versus time AUC90 of the test composition in the test medium with the maximum concentration, and/or the aqueous concentration versus time AUC90 of the control composition. In conducting such a dissolution test, the amount of test composition or control composition used is an amount such that if all of the enzalutamide dissolved, the test enzalutamide concentration would be at least about 20-fold that of the control enzalutamide concentration.
The concentration of dissolved enzalutamide is typically measured as a function of time by sampling the test medium and plotting enzalutamide concentration in the test medium vs. time so that the MDC can be ascertained. The MDC is taken to be the maximum value of dissolved enzalutamide measured over the duration of the test. The enzalutamide concentration versus time AUC90 is calculated by integrating the concentration versus time curve over any 90-minute time period between the time of introduction of the composition into the aqueous use environment (time equals zero) and 270 minutes following introduction to the use environment (time equals 270 minutes). Typically, when the composition reaches its MDC rapidly, in less than about 30 minutes, the time interval used to calculate AUC90 is from time equals zero to time equals 90 minutes. However, if the AUC90 over any 90-minute time period described above of a composition meets the criteria of compositions described herein, then the composition is included in compositions of this disclosure. The time period 270 min is chosen because of its physiological relevance. Drug absorption in mammals generally occurs in the small intestine, and the small intestinal transit time in humans is approximately 4.5 hr, or 270 min.
To avoid large enzalutamide particulates which would give an erroneous determination, the test solution is either filtered or centrifuged. “Dissolved enzalutamide” is typically taken as that material that either passes a 0.45 micron syringe filter or, alternatively, the material that remains in the supernatant following centrifugation. Filtration can be conducted using a 13 mm, 0.45 micron polyvinylidine difluoride syringe filter, such as the filter sold by Scientific Resources under the trademark TITAN′. Centrifugation is typically carried out in a polypropylene microcentrifuge tube by centrifuging at 13,000 G for 60 seconds. Other similar filtration or centrifugation methods can be employed and useful results obtained. For example, using other types of microfilters may yield values somewhat higher or lower (+/−10-40%) than that obtained with the filter specified above but will still allow identification of dispersions. It is recognized that this definition of “dissolved enzalutamide” encompasses not only monomeric solvated enzalutamide molecules but also a wide range of species such as polymer/enzalutamide assemblies that have submicron dimensions such as enzalutamide aggregates, aggregates of mixtures of polymer and enzalutamide, micelles, polymeric micelles, colloidal particles, polymer/enzalutamide complexes, and other such enzalutamide-containing species that are present in the filtrate or supernatant in the specified dissolution test. […]

[2] = Glass transition temperature by modulated DSC as a function of relative humidity
Method: Below Tg, an amorphous material is said to be in a “glassy” state in which molecular mobility is severely restricted. […] Glass transition temperatures Tg were determined for amorphous enzalutamide, and for spray-dried dispersions (SDDs) of enzalutamide with HPMCAS-M or PVP-VA64, at <5% and 75% relative humidity (RH). Tgs were determined by modulated differential scanning calorimetry (mDSC), utilizing the following protocol. Samples (about 5 mg) were equilibrated at the desired RH overnight in an environmental chamber at ambient temperature. The samples were then loaded into pans and sealed inside the environmental chamber. The samples were analyzed on a Q1000 mDSC (TA Instruments, New Castle, Delaware). Samples were typically scanned over the temperature range of −40° C. to 180° C., at a scan rate of 2.5° C./min, and a modulation rate of ±1.5° C./min. The data sampling interval was 0.20 sec/point. The Tg was calculated based on half height.

[3] = SEM particle morphology before and after 1 day at 50° C./75% RH; conditions: after 1 day exposure to 50° C./75% RH
Method: Scanning electron micrographs (SEMs) were obtained for samples before and after 1 day exposure to a 50° C./75% RH environment. After exposure of these samples to this challenging storage environment, no crystals were seen, indicative of the ability of these samples to maintain the amorphous character of enzalutamide. […] Thus these three embodiments would require controlled storage conditions to maintain their efficacy.

[4] = Microcentrifuge dissolution test after suspension in 0.5% methylcellulose for 2 hours
Method: Drugs and drug formulations are sometimes dosed as aqueous suspensions, particularly for pediatric patients. The ability of various enzalutamide SDDs to retain their ability to maintain drug supersaturation in vitro was assessed by using the microcentrifuge dissolution test to measure drug dissolution after suspension in 0.5% methylcellulose in water for 2 hours. Methylcellulose is a standard viscosifying suspending agent which is used to maintain drug particles in suspension in oral suspension dosage forms. The table below presents in vitro dissolution performance before and after suspension in 0.5% methylcellulose.

[5] = Membrane-permeation (MP) dissolution test
Method: The membrane permeability test described in the Examples below is carried out as follows. A drug-permeable membrane is placed between feed and permeate reservoirs. A sufficient quantity of test composition is added to a feed test medium and placed in the feed reservoir, while a water immiscible organic solution, such as a 60/40 mixture of decanol/decane, is placed in the permeate reservoir. Samples are removed from the permeate reservoir and analyzed for the concentration of drug as a function of time. […] Further details of this membrane permeation test are disclosed in U.S. Pat. No. 7,611,630 B2.
The MP-dissolution test, whose details are described above, measures a capability of low solubility drug formulations which is not measured in the microcentrifuge dissolution test utilized in Examples 4 and 7. This test mimics an aspect of the in vivo situation in the GI tract. In the in vivo situation, it is generally accepted that free drug in solution (i.e. individual drug molecules dissolved in the GI medium without association with formulation components) is the species which is absorbed across the gastrointestinal wall into the bloodstream. As free drug is absorbed, the formulation must be capable of supplying more free drug for absorption. The membrane permeation test measures the amount of drug which crosses a polymeric membrane (as a model of the GI wall) over time, and thus reflects the ability of the formulation to resupply free drug in solution to be further passively transported across the polymeric membrane. In Table 8.1 below, Maximum Flux is the maximum observed rate of permeation across the polymeric membrane, based on the slope of the absorption curve over any period within the 240 minute duration of the experiment, normalized for membrane area. Total drug recovery is the % of the initial drug dose which has crossed the membrane when the test ended at 240 minutes.
The membrane permeation test was carried out for 60% A enzalutamide SDDs with HPMCAS-M, HPMC E3 Prem, HPMCP-55, and Eudragit-L100, as described in Example 8.

[6] = 0 hr, before suspension in aqueous 0.5% methylcellulose
[7] = 2 hr, after suspension for 2 hr in aqueous 0.5% methylcellulose
[8] = Table 8.1, within 240 minutes, normalized for membrane area

Row | SMILES | Enzalutamide Concentration, 0 min ([1]; 0 min) | Enzalutamide Concentration, 4 min ([1]; 4 min) | Enzalutamide Concentration, 10 min ([1]; 10 min) | Enzalutamide Concentration, 20 min ([1]; 20 min) | Enzalutamide Concentration, 40 min ([1]; 40 min) | Enzalutamide Concentration, 90 min ([1]; 90 min) | Enzalutamide Concentration, 1200 min ([1]; 1200 min) | AUC90 (area under the curve at 90 minutes) [1] | Cmax, 90 (maximum drug concentration through 90 minutes) [1] | Maximum Flux [5, 8] | other results
1 | CNC(=O)c1ccc(N2C(=S)N(c3ccc(C#N)c(C(F)(F)F)c3)C(=O)C2(C)C)cc1F [Amorphous (spray-dried) enzalutamide - BREC-0035-09B(V)] | 0.0 µg/mL | 61 µg/mL | 100 µg/mL | 100 µg/mL | 110 µg/mL | 120 µg/mL | 30 µg/mL | 9,500 min*μg/mL | 120 µg/mL | 1.3 μg/cm^2 × min | Tg ([2]; 75% RH): 64.0 °C; Tg ([2]; <5% RH): 88.5 °C; fusion of particles to larger particles by SEM after storage challenge [3]: fusion of particles to form larger particles; AUC90 [4, 6]: 8,900 min · mcg/ml; Cmax 90 [4, 6]: 110 µg/mL; AUC90 [4, 7]: 8,800 min · mcg/ml; Cmax 90 [4, 7]: 100 µg/mL
2 | CNC(=O)c1ccc(N2C(=S)N(c3ccc(C#N)c(C(F)(F)F)c3)C(=O)C2(C)C)cc1F [Crystalline enzalutamide (Control 1)] | 0.0 µg/mL | 1 µg/mL | 3 µg/mL | 5 µg/mL | 6 µg/mL | 7 µg/mL | 9 µg/mL | 500 µg·min/mL | 7 µg/mL | 0.4 μg/cm^2 × min | In vitro dissolution, Average, 0 min ([1]; Table 9.1, 0 min): 0.32 µg/mL; In vitro dissolution, Average, 4 min ([1]; Table 9.1, 4 min): 5.23 µg/mL; In vitro dissolution, Average, 10 min ([1]; Table 9.1, 10 min): 8.04 µg/mL; In vitro dissolution, Average, 20 min ([1]; Table 9.1, 20 min): 7.69 µg/mL; In vitro dissolution, Average, 40 min ([1]; Table 9.1, 40 min): 8.65 µg/mL; In vitro dissolution, Average, 90 min ([1]; Table 9.1, 90 min): 9.14 µg/mL; In vitro dissolution, Average, 1200 min ([1]; Table 9.1, 1200 min): 12.12 µg/mL; AUC90 min ([1]; Table 9.2): 740 µg·min/mL; Cmax, 90 min ([1]; Table 9.2): 10 µg/mL; Maximum Flux ([5]; Table 9.3): 0.4 μg/cm^2-min
